Experimental findings from US20230414735A1, “NEOANTIGENS AND METHODS OF THEIR USE” (priority 2016, published 2023) are described below.

Where two headings read alike, the source gives them in different places. Where no end group is shown, it is not given here.

This experiment deals with HLA class I molecule. The experiment can be described thus: HLA class I peptide binding affinity assay (inhibition of 125I-radiolabeled probe peptide binding to purified HLA). To be noted: read-out: Observed Affinity (IC50, (nM)). Details: species or system human. The method, then:
Epstein-Barr virus (EBV)-transformed homozygous cell lines, fibroblasts, CIR, or 721.22 transfectants are used as sources of HLA class I molecules. […] HLA molecules are purified from lysates by affinity chromatography. The lysates are passed over a column of Sepharose CL-4B beads coupled to an appropriate antibody. […] A 1/25 volume of 2.0 M Tris, pH 6.8, is added to the eluate to reduce the pH to […]. Eluates are then concentrated by centrifugation in Centriprep 30 concentrators (Amicon, Beverly, MA). Protein content is evaluated by a BCA protein assay (Pierce Chemical Co., Rockford, IL) and confirmed by SDS-PAGE.
Following incubation, MHC-peptide complexes are separated from free peptide by gel filtration on 7.8 mm×15 cm TSK200 columns (TosoHaas 16215, Montgomeryville, PA). Because the large size of the radiolabeled peptide used for the DRB1*1501 (DR2w2(31) assay makes separation of bound from unbound peaks more difficult under these conditions, all DRB1*1501 (DR2w2(31) assays were performed using a 7.8 mm×30 cm TSK2000 column eluted at 0.6 mLs/min. The eluate from the TSK columns is passed through a Beckman 170 radioisotope detector, and radioactivity is plotted and integrated using a Hewlett-Packard 3396A integrator, and the fraction of peptide bound is determined.
Radiolabeled peptides are iodinated using the chloramine-T method. […] All subsequent inhibition and direct binding assays are performed using these HLA concentrations.
Since under these conditions [label]<[HLA] and IC50≥[HLA], the measured IC50 values are reasonable approximations of the true KD values. […] For database purposes, and inter-experiment comparisons, relative binding values are compiled. These values can subsequently be converted back into IC50 nM values by dividing the IC50 nM of the positive controls for inhibition by the relative binding of the peptide of interest.
HLA binding assays were used to evaluate either the affinity of interaction of a given epitope with a selected HLA molecule or the stability.
The measurements are plotted against the predicted affinity in FIG. 1.

As a reminder, the IC50 is the concentration that inhibits the measured activity by half. For LIMQLMPFG, the IC50 (allele A02.01) is 3510 nM.
Take LIVSRTLLLV: where the note is “allele A02.01”, the IC50 is 10900 nM.
Consider LKKLRSPL, for which the IC50 (allele B08.01) turned out to be 0.6 nM.
LLDILDTAGL: the IC50 (allele A02.01) is 716 nM.
Still for that read-out and setting: under LLGRNSFEVC stands 2080 nM; under LLPEDTPPL, 2.8 nM; under LLQVTQTSFA, 677 nM.
On the same count and under the same terms, under LLSTPPLSPS stands 1770 nM; under LLYITAFFLL, 323 nM.
On the same count and under the same terms, under LQEFDVQEAL [LQEFDVQEAL] stands 50300 nM; under LQVTQTSFAL [LQVTQTSFAL], 718 nM.
With LSFLSSWDY, the IC50 (allele A01.01) came to 52.9 nM.
Same read-out and setting: under LTSTVQLIM stands 2890 nM.
In the case of LVRLSSCVPV, under “allele A02.01”, the IC50 was found to be 1240 nM.
On the same count and under the same terms, under LVVVGADGV stands 1190 nM; under MLTGPPARV, 10.6 nM.
Take MSDTTYKIY: the IC50 (allele A01.01) turned out to be 10.2 nM.
MSVCFFFFSV: the half-inhibitory concentration (IC50) (allele A02.01) came out at 1710 nM.
Turning to NSFEVHVCA, the IC50 (allele A02.01) turned out to be 503 nM.
Regarding NVVPLCDLL, where the note is “allele A02.01”, the IC50 was found to be 3030 nM.
The same measure, in the same setting: under NVVPLCDLLL stands 1370 nM; under NVVPLNDLL, 2900 nM.
The same measure, in the same setting: under NVVPLNDLLL stands 4190 nM; under NVVPLSDLL, 916 nM.
Turning to NVVPLSDLLL, the half-inhibitory concentration (IC50) (allele A02.01) came out at 741 nM.
On the same count and under the same terms, under NVVPLYGLL stands 10500 nM.
Still for that read-out and setting: under PLNDLLLEML stands 12000 nM.
Still for that read-out and setting: under PLSDLLLEML stands 6470 nM; under PLYGLLLEML, 797 nM; under QLIMQLMPFG, 5930 nM.
Consider QQQSDLQPPA, for which the IC50 (allele A02.01) was found to be 646 nM.
On the same count and under the same terms, under QQSDLQPPA stands 70 nM; under QTGVMICAYL, 9760 nM.
Same read-out and setting: under RLSSCVPVAL [RLSSCVPVAL] stands 54.2 nM; under RLWHLLLQV, 1.3 nM; under RLWHLLLQVT, 50.9 nM.
Consider SAMTTSSSQK, for which the IC50 (Allele A11.01) came to 15.8 nM.
As for SLKKVPALK, under “Allele A11.01”, the IC50 came to 129 nM.
Consider SLVRLSSCV, for which the IC50 (allele A02.01) turned out to be 29.9 nM.
Same read-out and setting: under SLYIVGFYG stands 1060 nM; under STVQLIMQL, 8540 nM.
For TGSNEVTTRY, the IC50 (allele A01.01) is 15500 nM.
On to TIGGPTLVII, for which, for the setting “allele A02.01”, the IC50 stood at 10700 nM.
The same measure, in the same setting: under TLQRSSLWCL stands 118 nM; under TQISSATEYL, 2640 nM.
As for TTNAFSGEY, the IC50 (allele A01.01) was 4.4 nM.
Consider VMSDTTYKI, for which the IC50 (allele A02.01) was 19.6 nM.
In the case of VMSDTTYKIY, the IC50 (allele A01.01) was 376 nM.
For the sequence VQWRSLGSL, under “allele A02.01”, the concentration for half-maximal inhibition (IC50) was 4730 nM.
Regarding VRLSSCVPVA, under “allele A02.01”, the half-inhibitory concentration (IC50) worked out at 1210 nM.
The same measure, in the same setting: under VVPLCDLLL stands 1200 nM; under VVPLSDLLL, 2550 nM.
Same read-out and setting: under YIIIEFMTYG stands 186 nM.
Regarding YITAFFLLDI, under “allele A02.01”, the IC50 is 64.5 nM.
Still for that read-out and setting: under YLGNHMNIAN stands 1340 nM; under YLTKWPKFFL, 42.9 nM; under YMANGSLLN, 4440 nM.
Consider YMANGSLLNY, for which, for the setting “allele A01.01”, the IC50 stood at 13.2 nM.
Same read-out and setting: under YTTNAFSGEY stands 10.5 nM.
